{"source": "patent EP0247971A2", "about": "“Novel pharmaceutical compositions comprising and use of cis-6-(4-acetanilido)-8,9-dimethoxy-2-methyl-1,2,3,4,4a,10b-hexahydrobenzo[c][1,6]naphthyridin” (SANDOZ AG, priority 1986, dated 1987)", "key": {"rats": {"test_system": "rats", "test": "30-week oral administration toxicity, rats", "type": "in vivo", "description": "(§1) 30-week oral administration of (±)-COMPOUND to rats and dogs indicate no toxicity at dosages up to 272 mg/kg/day in rats and up to 10 mg/kg/day in dogs. (±)-COMPOUND is found to have no embryolethal or teratogenic actions in the rat at dosages up to 300 mg/kg and in the rabbit at dosages up to 30 mg/kg."}, "Guinea-pigs [1]": {"test_system": "Guinea-pigs", "test": "Reversal of bombesin-induced bronchospasm in vivo", "conditions": "i.v. at the height of bronchospasm induced by bombesin (ca. 500 ng/kg); one series of tests; of the order of", "description": "(§2) Guinea pigs are anaesthetised with pentobarbital (30 mg/kg i.p.) and phenobarbital (100 mg/kg i.p.) and ventilated via a tracheal cannula (10 ml/kg, lHz). Ventilation is monitored either by a pressure transducer measuring air-flow (Konzett-Rossler method), or by a Fleisch flow transducer in line with the inspiratory circuit. When making measurements of flow, coincident pressure changes in the thorax are monitored directly via an intrathoracic trochar, permitting display of differential pressure relative to the trachea. From this information resistance and compliance are calculated at each inspiration. Test substance is, administered via an indwelling cannula within a jugular vein. Blood pressure is monitored at the carotid artery. Test substance is administered immediately before injection of a bronchoconstrictor agent - PAF (56 ng/kg), acetylcholine (32 µg/kg), histamine(10 µg/kg), serotonin (10 µg/kg), substance P ([…]) or leukotriene C4 (5 µg/kg).\nGuinea-pigs are prepared for measurement of resistance and compliance as under lb^l above. Intravenous injection of bombes in (ca. 500 ng/kg) as a bolus, induces increased airways resistance which is sustained over a period of several minutes. Capacity of test-substance to reverse response when administered i.v. at the height of bombesin-induced bronchospasm serves as a measure of efficacy in reversing established bronchospasm."}, "Guinea pigs [2]": {"test_system": "Guinea pigs", "test": "Suppression of airways hyperreactivity, sensitised animals (immune complexes)", "type": "in vivo", "source_text": "Guinea pigs are anaesthetised and airways resistance and compliance recorded as described under example lb^l above. […] Platelets are isolated and labelled with ^lllindium prior to intravenous infusion. Platelet accumulation is monitored by external crystal detectors [c.f. Morley et al. […] Allergic reaction is initiated by i.v. injection of preformed immune complexes (bovine y-globulin/ anti-bovine y-globulin), using a dose that is scarcely sufficient to induce bronchospasm at the first injection. By repeating the dose at regular (10 min.) intervals, bronchospasm of progressively increasing amplitude is evidenced. This effect is paralleled by an incremental retention of platelets within the airway vasculature. Following the last dose of immune complexes, the dose-effect relationship to histamine is re-defined. In animals so treated, induction of airways hyperreactivity is consistently observed."}, "[3]": {"test_system": "guinea-pig peritoneal cavity", "test": "Influence on eosinophil accumulation in the peritoneal cavity in vivo", "description": "Effect of test-substance is conveniently determined by measurement of influence on PAF-induced eosinophil accumulation in the guinea-pig peritoneal cavity in vivo. In the guinea-pig, there is a substantial (up to 40%) resident population of eosinophils in the peritoneal cavity and eosinophil accumulation in the peritoneal cavity relative to control animals ca. 24 - 48 hrs. following injection of PAF i.p. at dosages of ca. 10µg/kg.\nTo esablish eosinophil accumulation, test animals receive 10µg/kg PAF i.p., 2 days prior to sacrifice. Smears from the peritoneal cavity are prepared employing Leishman's Stain after fixation with 95% methanol. At least 500 white cells are differentiated for each estimation. Test substance is administered s.c. via a minipump for four days prior to sacrifice."}, "[4]": {"test_system": "subjects exhibiting heart insufficiency", "test": "Tolerability and safety in subjects exhibiting heart insufficiency", "type": "in vivo, humans"}, "[5]": {"test_system": "guinea-pig tracheal ring preparations", "test": "Bronchospasmolytic activity in vitro, isolated guinea-pig trachea", "type": "cell-based", "conditions": "for IC50: guinea-pig tracheal rings, one series of tests", "description": "The trachea is excised from freshly sacrificed guinea-pigs and transected in the transverse plane to give rings of tissue of ca. 2 mm. Individual rings are mounted vertically on stainless steel supports, one of which is fixed at the base of an organ bath, the other being attached to a tension transducer. The rings are bathed in modified Tyrode solution at 37°C and gassed with O2/CO2 (95:5, v/v). Rings prepared in this manner, preloaded with 1 g, generate spontaneous tone and, after a period of equilibration, relax on addition of spasmolytic drugs. Tension can be enhanced by addition of carbachol (10-^6M) or histamine (10-^4M). To ascertain spasmolytic activity, test substances are dissolved in physiological saline and added in increasing quantities to the organ bath at 5 min. intervals to provide a cumulative concentration-effect curve."}, "Guinea-pigs [6]": {"test_system": "Guinea-pigs", "test": "Suppression of airways hyperreactivity, PAF-treated animals", "type": "in vivo", "description": "Guinea-pigs are anaesthetised and prepared for recording of lung function as described under example lb^l above. Intravenous injection of low dose bombesin (240 ng/kg) establishes airways sensitivity to spasmogens. Following infusion of PAF over lhr. […] Induction of airways hyperreactivity by PAF is a platelet-dependent phenomenon and development of. airways hyperreactivity in this model in paralleled by observed accumulation of platelets within the thorax."}, "Guinea pigs [7]": {"test_system": "Guinea pigs", "test": "Inhibition of bronchospasm in vivo (Konzett-Rossler preparation)", "conditions": "dosages of the order of 1 mg/kg via jugular vein immediately before PAF, acetylcholine, histamine, serotonin, substance P or leukotriene C4", "description": "as §2"}, "rabbit": {"test_system": "rabbit", "test": "Embryolethal or teratogenic actions, rabbit", "type": "in vivo", "description": "as §1"}, "Conscious guinea-pigs": {"test_system": "Conscious guinea-pigs", "test": "Inhibition of acetylcholine-mist bronchoconstriction following pulmonary administration", "type": "in vivo", "conditions": "inhalation of mist 10 mins. prior to 0.3% mist of acetylcholine", "description": "Conscious guinea-pigs are subjected to inhalation of COMPOUND or placebo (vehicle) 10 mins. prior to explosure to a 0.3% mist of acetylcholine. COMPOUND is administered as a mist generated from COMPOUND in aqueous solution at concentrations of from 1 mg/ml to 0.001 mg/ml, using a jet nebuliser. Prolongation of time prior to collapse in treated groups as compared with placebo groups is taken as a measure of bronchodilator efficacy."}, "rat": {"test_system": "rat", "test": "Embryolethal or teratogenic actions, rat", "type": "in vivo", "description": "as §1"}, "dogs": {"test_system": "dogs", "test": "30-week oral administration toxicity, dogs", "type": "in vivo", "description": "as §1"}, "healthy trial volunteers": {"test_system": "healthy trial volunteers", "test": "Tolerability and safety in healthy trial volunteers", "type": "in vivo, humans"}, "[8]": {"conditions": "intravenous dosages of up to 100 mg by perfusion over 10 mins."}}, "note": "Read-outs that look alike come from different tables or passages of the source.", "data": [{"molecule": "COc1cc2c(cc1OC)[C@@H]1CN(C)CC[C@@H]1N=C2c1ccc(NC(C)=O)cc1", "note": "(racemic) [(±)-COMPOUND, cis-6-(4-acetanilido)-8,9-dimethoxy-2-methyl-1,2,3,4,4a,10b-hexahydrobenzo[c][1,6]naphthyridin]", "values": [{"measurement": "dosages with no toxicity", "setting": "rats", "result": "up to 272 mg/kg/day"}, {"measurement": "ID50 values, abrogation of bombesin-induced bronchospasm", "setting": "Guinea-pigs [1]", "result": "0.08 to 0.48", "unit": "mg/kg"}, {"measurement": "dosage giving suppression of induced airways resistance", "setting": "Guinea pigs [2]; advance administration i.v., ca., compared with untreated controls", "result": "≥ 1", "unit": "mg/kg"}, {"measurement": "effective dose, inhibition of airways hyperreactivity", "setting": "Guinea pigs [2]; one test series", "result": 0.35, "unit": "mg/kg"}, {"measurement": "PAF-induced eosinophil accumulation", "setting": "[3]; of the order of 2 mg/kg/day s.c. via minipump for four days, animals receiving 10µg/kg PAF i.p.", "result": "inhibition of eosinophil accumulation"}, {"measurement": "resident eosinophil population", "setting": "[3]; of the order of 10 mg/kg/day s.c. via minipump for four days, non-PAF-treated animals, vs untreated controls", "result": "decrease"}, {"measurement": "arterial pressure", "setting": "[4]; [8]", "result": "light fall"}, {"measurement": "heart frequency", "setting": "[4]; [8]", "result": "increase"}, {"measurement": "intravenous dosages well tolerated", "setting": "[4]; perfusion over 10 mins., subjects exhibiting heart insufficiency", "result": "up to 100 mg"}, {"measurement": "systolic blood-pressure", "setting": "[4]; placebo controlled trials, after 60 mins.", "result": "light increase"}, {"measurement": "heart frequency", "setting": "[4]; placebo controlled trials, oral", "result": "no relevant change"}, {"measurement": "oral dosages with no significant side effects, well tolerated", "setting": "[4]; subjects exhibiting heart insufficiency, oral", "result": "up to 600 mg"}, {"measurement": "relaxant action on tracheal rings from animals desensitised to β2-agonist therapy", "setting": "[5]; animals with prolonged exposure to high-dose isoprenaline in vivo", "result": "not influenced"}, {"measurement": "IC50", "setting": "[5]; carbachol (10-^6M), read-out: IC50 values for inhibition of contraction due to carbachol", "result": 5.8, "unit": "µM"}, {"measurement": "IC50", "setting": "[5]; histamine (10-^4M), read-out: IC50 values for inhibition of contraction due to histamine", "result": 1.7, "unit": "µM"}, {"measurement": "IC50", "setting": "[5]; spontaneous tone, read-out: IC50 values for inhibition of spontaneous tone", "result": 3.2, "unit": "µM"}, {"measurement": "relaxant action in the presence of propanolol", "setting": "[5]; propanolol (1 uM)", "result": "undiminished"}, {"measurement": "thoracic platelet accumulation in response to PAF", "setting": "Guinea-pigs [6]; 1 mg/kg bolus and infusion at 1 mg/kg/hr i.v.", "result": "inhibited"}, {"measurement": "dosage giving suppression of airways hyperreactivity induction", "setting": "Guinea-pigs [6]; advance administration i.v., ca., PAF infusion 600 ng/kg, bombesin 240 ng/kg", "result": "≥ 0.1", "unit": "mg/kg"}, {"measurement": "ID50, suppression of airways hyperreactivity induction", "setting": "Guinea-pigs [6]; i.v., one series of tests, of the order of", "result": "~1", "unit": "mg/kg"}, {"measurement": "constrictor response to bronchoconstrictor agents", "setting": "Guinea pigs [7]", "result": "strongly inhibits"}, {"measurement": "dosages with no embryolethal or teratogenic actions", "setting": "rabbit", "result": "up to 30 mg/kg"}, {"measurement": "amount introduced into the exposure chamber giving detectable protection against bronchospasm", "setting": "Conscious guinea-pigs", "result": "≥ 2", "unit": "µg"}, {"measurement": "dosages with no embryolethal or teratogenic actions", "setting": "rat", "result": "up to 300 mg/kg"}, {"measurement": "dosages with no toxicity", "setting": "dogs", "result": "up to 10 mg/kg/day"}, {"measurement": "tolerability", "setting": "healthy trial volunteers; 600 mg once daily for 3 days (6 subjects)", "result": "well tolerated"}, {"measurement": "single oral dosages with no occurrence of side effects or relevant changes in laboratory parameters", "setting": "healthy trial volunteers; healthy trial volunteers (27 subjects)", "result": "up to 800 mg"}]}]}
